Measurements from patent US4923986A, “Derivatives of physiologically active substance K-252” (Kyowa Hakko Kogyo Co., Ltd., priority 1988, dated 1990).
In brackets after ≈: the same amount, converted by molar mass. Where two headings read alike, the source gives them in different places.

Columns and labels:
[1] = system: HeLaS3 cells; experiment: HeLaS3 cell growth inhibition test; type: cell-based; settings: Homo sapiens, read-out: cell growth inhibitory activity IC50, HeLaS3
Experimental: (§1) Compound (I) was examined for C-kinase inhibitory activity and cell growth inhibitory activity by the following method.
(§2) MCF 7 cells (4.5×10^4 cells/ml) prepared in RPMI 1640 medium containing 10% fetal calf serum, 10 μg/ml insulin and 10^-8 M estradiol are put into wells of a 96-well microtiter plate in the amount of 0.1 ml per each well. After incubation at 37° C. overnight in CO2 -incubator, 0.05 ml each of a test sample appropriately diluted with the culture medium is added to each well. In the case of contact for 72 hours, the cells are further cultured in CO2 -incubator, and then the culture supernatant is removed and the wells are washed once with PBS(-). Thereafter, 0.1 ml of fresh medium is added to each well, followed by culturing at 37° C. for 72 hours in CO2 -incubator. After the culture supernatant is removed, 0.1 ml of the culture medium containing 0.02% Neutral Red is added to each well, followed by culturing at 37° C. for one hour in CO2 -incubator, whereby the cells are stained. Then, the culture supernatant is removed and the cells are washed once with physiological saline. The pigment is extracted with 0.001N HCl/30% ethanol and absorption is measured at 550 nm with a microplate reader. By comparing the absorption of intact cells with those of the cells treated with a test compound in known concentrations, the concentration of the test compound at which growth of the cells is inhibited 50% is calculated as IC50.
(3) HeLaS3 cell growth inhibition test:
HeLaS3 cells (3×10^4 cells/ml) prepared in MEM medium containing 10% fetal calf serum and 2 mM glutamine are put into wells of a 96-well microtiter plate in the amount of 0.1 ml per each well.
Thereafter, the test is carried out in the same manner as in (1).

[2] = system: MCF 7 cells; experiment: MCF 7 cell growth inhibition test; type: cell-based; settings: Homo sapiens, MCF7; MCF-7 cells, contact for 72 hours; read-out: cell growth inhibitory activity IC50, MCF-7
Experimental: as §1
(1) MCF 7 cell growth inhibition test:
as §2

[3] = biological target: C-kinase (protein kinase C); experiment: C-Kinase inhibitory activity test; type: biochemical; settings: enzyme activity inhibited 50%
[4] = system: COLO320DM cells; experiment: COLO320DM cell growth inhibition test; type: cell-based; settings: Homo sapiens, COLO 320DM; COLO320DM cells, cells counted with a microcell counter; read-out: cell growth inhibitory activity IC50, COLO320DM
Experimental: as §2, with “After” for “MCF 7 cells (4.5×10^4 cells/ml) prepared in RPMI 1640 medium containing 10% fetal calf serum, 10 μg/ml insulin and 10^-8 M estradiol are put into wells of a 96-well microtiter plate in the amount of 0.1 ml per each well. After”, “reader.” for “reader. By comparing the absorption of intact cells with those of the cells treated with a test compound in known concentrations, the concentration of the test compound at which growth of the cells is inhibited 50% is calculated as IC50.”
(4) COLO320DM cell growth inhibition test:
Thereafter, the test is carried out in the same manner as in (1) except that the cells are counted with a microcell counter.

[5] = system: PC-10 cells; experiment: PC-10 cell growth inhibition test; type: cell-based; settings: Homo sapiens, read-out: cell growth inhibitory activity IC50, PC-10
Experimental: as §1, §2
(2) PC-10 cell growth inhibition test:
PC-10 cells (5×10^4 cells/ml) prepared in MEM medium containing 10% fetal calf serum and 2 mM glutamine are put into wells of a 96-well microtiter plate in the amount of 0.1 ml per each well.
Thereafter, the test is carried out in the same manner as in the MCF 7 cell growth inhibition test.

[6] = HeLa S3, HeLaS3 cells, contact for 72 hours
[7] = PC10, PC-10 cells, contact for 72 hours

Row | SMILES | IC50 [1, 6] | C-Kinase inhibitory activity IC50 [3] | IC50 [2] | IC50 [4] | IC50 [5, 7] | IC50 ([1]; HeLa S3, 72 h) | IC50 ([5]; PC10, 72 h)
1 | C[C@]12O[C@H](C[C@]1(O)CO)n1c3ccc(O)cc3c3c4c(c5c6ccccc6n2c5c31)CNC4=O (relative stereo) [Compound 21] | 0.46 mg/L (≈ 1.01 µM) | 0.01 mg/L | 0.76 mg/L (≈ 1.67 µM) | 0.29 mg/L (≈ 0.637 µM) |  |  | 
2 | C[C@]12O[C@H](C[C@]1(O)C(=O)NCCO)n1c3ccccc3c3c4c(c5c6ccccc6n2c5c31)CNC4=O (relative stereo) [Compound 3] | 0.95 mg/L (≈ 1.91 µM) | 0.018 mg/L |  |  | 0.68 mg/L (≈ 1.37 µM) |  | 
3 | CCOC(=O)[C@@]1(O)C[C@H]2O[C@]1(C)n1c3ccccc3c3c4c(c5c6ccccc6n2c5c31)C(=O)NC4 (relative stereo) [Compound 4] | 0.6 mg/L (≈ 1.25 µM) | 0.13 mg/L |  |  | > 1 mg/L |  | 
4 | C[C@]12O[C@H](C[C@]1(O)CO)n1c3ccc(N)cc3c3c4c(c5c6ccccc6n2c5c31)CNC4=O (relative stereo) [Compound 23] | 0.15 mg/L (≈ 0.33 µM) | 0.038 mg/L | 0.34 mg/L (≈ 0.748 µM) | 0.22 mg/L (≈ 0.484 µM) |  |  | 
5 | COC(=O)[C@@]1(O)C[C@H]2O[C@]1(C)n1c3ccccc3c3c4c(c5c6cc(N)ccc6n2c5c31)C(=O)NC4 (relative stereo) [Compound 9] | 0.01 mg/L (≈ 0.0207 µM) | 0.175 mg/L | 0.13 mg/L (≈ 0.269 µM) | 0.05 mg/L (≈ 0.104 µM) |  |  | 
6 | COC(=O)[C@@]1(O)C[C@H]2O[C@]1(C)n1c3ccccc3c3c4c(c5c6cc(O)ccc6n2c5c31)C(=O)NC4 (relative stereo) [Compound 15] |  | 0.009 mg/L |  |  |  | 0.48 mg/L (≈ 0.993 µM) | 0.11 mg/L (≈ 0.228 µM)
7 | C[C@]12O[C@H](C[C@]1(O)C(N)=O)n1c3ccccc3c3c4c(c5c6ccccc6n2c5c31)CNC4=O (relative stereo) [Compound 2] | 0.22 mg/L (≈ 0.486 µM) | 0.003 mg/L |  |  | 0.03 mg/L (≈ 0.0663 µM) |  | 
8 | COC(=O)[C@@]1(O)C[C@H]2O[C@]1(C)n1c3ccc(N)cc3c3c4c(c5c6cc(N)ccc6n2c5c31)C(=O)NC4 (relative stereo) [Compound 10] | 0.07 mg/L (≈ 0.141 µM) | 0.02 mg/L | 0.95 mg/L (≈ 1.91 µM) | 0.1 mg/L (≈ 0.201 µM) |  |  | 
9 | CC12OC(CC1O)n1c3ccccc3c3c4c(c5c6ccccc6n2c5c31)CNC4=O (centres unmarked) [Compound 48] |  | 0.022 mg/L |  |  |  | 0.72 mg/L (≈ 1.76 µM) | 0.48 mg/L (≈ 1.17 µM)
10 | C[C@]12O[C@H](C[C@]1(O)C(=O)NO)n1c3ccccc3c3c4c(c5c6ccccc6n2c5c31)CNC4=O (relative stereo) [Compound 1] | 0.59 mg/L (≈ 1.26 µM) | 0.005 mg/L |  |  | 0.14 mg/L (≈ 0.299 µM) |  | 
11 | COC(=O)[C@@]1(O)C[C@H]2O[C@]1(C)n1c3ccccc3c3c4c(c5c6ccccc6n2c5c31)C(=O)N(Cl)C4 (relative stereo) [Compound 5] | 0.51 mg/L (≈ 1.02 µM) | 0.034 mg/L |  |  | 0.84 mg/L (≈ 1.67 µM) |  | 
12 | COC(=O)[C@@]1(O)C[C@H]2O[C@]1(C)n1c3ccccc3c3c4c(c5c6cc(Br)ccc6n2c5c31)C(=O)NC4 (relative stereo) [Compound 7] | 0.15 mg/L (≈ 0.275 µM) | 0.028 mg/L |  |  | 0.76 mg/L (≈ 1.39 µM) |  | 
13 | COC(=O)[C@@]1(O)C[C@H]2O[C@]1(C)n1c3ccc(O)cc3c3c4c(c5c6cc(O)ccc6n2c5c31)C(=O)NC4 (relative stereo) [Compound 16] | 0.44 mg/L (≈ 0.881 µM) | 0.005 mg/L | 0.84 mg/L (≈ 1.68 µM) |  |  |  | 

Further lines, with some results ahead:

Row | IC50 [1, 6] | C-Kinase inhibitory activity IC50 [3] | SMILES | IC50 [2] | IC50 [4] | IC50 [5, 7] | IC50 ([1]; HeLa S3, 72 h) | IC50 ([5]; PC10, 72 h)
14 | 0.46 mg/L (≈ 0.932 µM) | 0.021 mg/L | CC12OC(CC1(O)C=NNC(=N)N)n1c3ccccc3c3c4c(c5c6ccccc6n2c5c31)CNC4=O (centres unmarked) [Compound 52] | 0.4 mg/L (≈ 0.81 µM) | > 1 mg/L |  |  | 
15 | 0.23 mg/L (≈ 0.443 µM) | 0.031 mg/L | C[C@]12O[C@H](C[C@]1(O)C=NNC1=NCCN1)n1c3ccccc3c3c4c(c5c6ccccc6n2c5c31)CNC4=O [Compound 51] | 0.5 mg/L (≈ 0.962 µM) | 1 mg/L (≈ 1.92 µM) |  |  | 
16 | 0.2 mg/L (≈ 0.355 µM) | 0.053 mg/L | CC12OC(CC13CN(CC=NNC(=N)N)C(=O)O3)n1c3ccccc3c3c4c(c5c6ccccc6n2c5c31)CNC4=O (centres unmarked) [Compound 63] | 0.45 mg/L (≈ 0.8 µM) | 0.64 mg/L (≈ 1.14 µM) |  |  | 
17 | 0.55 mg/L (≈ 1.17 µM) | 0.11 mg/L | CSCC1(O)CC2OC1(C)n1c3ccccc3c3c4c(c5c6ccccc6n2c5c31)C(=O)NC4 (centres unmarked) [Compound 45] |  |  | > 1 mg/L |  | 
18 | 0.07 mg/L (≈ 0.151 µM) | 0.006 mg/L | CC1=NCC2(CC3OC2(C)n2c4ccccc4c4c5c(c6c7ccccc7n3c6c42)C(=O)NC5)O1 (centres unmarked) [Compound 56] | 0.4 mg/L (≈ 0.865 µM) | 1 mg/L (≈ 2.16 µM) |  |  | 
19 | 0.14 mg/L (≈ 0.288 µM) | 0.038 mg/L | CC12OC(CC13COS(=O)O3)n1c3ccccc3c3c4c(c5c6ccccc6n2c5c31)CNC4=O (centres unmarked) [Compound 55] |  |  | 0.64 mg/L (≈ 1.32 µM) |  | 
20 | 0.44 mg/L (≈ 0.947 µM) | 0.06 mg/L | C[C@]12O[C@H](C[C@]1(O)CN=[N+]=[N-])n1c3ccccc3c3c4c(c5c6ccccc6n2c5c31)CNC4=O (relative stereo) [Compound 29] |  |  | 0.71 mg/L (≈ 1.53 µM) |  | 
21 | 0.53 mg/L (≈ 0.982 µM) | 0.017 mg/L | C[C@]12O[C@H](C[C@]1(O)COC(=O)CCC(=O)O)n1c3ccccc3c3c4c(c5c6ccccc6n2c5c31)CNC4=O (relative stereo) [Compound 27] | > 1 mg/L | > 1 mg/L |  |  | 
22 | 0.22 mg/L (≈ 0.443 µM) | 0.01 mg/L | C[C@]12O[C@H](C[C@]1(O)CNCC(=O)O)n1c3ccccc3c3c4c(c5c6ccccc6n2c5c31)CNC4=O (relative stereo) [Compound 32] | 0.74 mg/L (≈ 1.49 µM) | > 1 mg/L |  |  | 
23 | 0.17 mg/L (≈ 0.355 µM) | 0.046 mg/L | CN1CC2(CC3OC2(C)n2c4ccccc4c4c5c(c6c7ccccc7n3c6c42)C(=O)NC5)OC1=O (centres unmarked) [Compound 59] | 1 mg/L (≈ 2.09 µM) | 0.39 mg/L (≈ 0.815 µM) |  |  | 
24 | 0.07 mg/L (≈ 0.16 µM) | 0.015 mg/L | C[C@]12O[C@H](C[C@]1(O)CN)n1c3ccccc3c3c4c(c5c6ccccc6n2c5c31)CNC4=O (relative stereo) [Compound 30] |  |  | 0.04 mg/L (≈ 0.0912 µM) |  | 
25 | 0.28 mg/L (≈ 0.583 µM) | 0.017 mg/L | CC12OC(CC13CNC(=S)O3)n1c3ccccc3c3c4c(c5c6ccccc6n2c5c31)CNC4=O (centres unmarked) [Compound 58] |  |  | 0.69 mg/L (≈ 1.44 µM) |  | 
26 | 0.08 mg/L (≈ 0.19 µM) | 0.02 mg/L | CC12OC(CC13CO3)n1c3ccccc3c3c4c(c5c6ccccc6n2c5c31)CNC4=O (centres unmarked) [Compound 36] | 0.52 mg/L (≈ 1.23 µM) | 0.12 mg/L (≈ 0.285 µM) |  |  | 
27 | 0.19 mg/L (≈ 0.371 µM) | 0.02 mg/L | CC12OC(CC1(O)CNCC(O)CO)n1c3ccccc3c3c4c(c5c6ccccc6n2c5c31)CNC4=O (centres unmarked) [Compound 43] | 0.52 mg/L (≈ 1.01 µM) | > 1 mg/L |  |  | 
28 | 0.24 mg/L (≈ 0.512 µM) | 0.22 mg/L | CC12OC(CC1(O)CO)n1c3ccccc3c3c4c(c5c6ccccc6n2c5c31)C(=O)N(N)C4=O (centres unmarked) [Compound 72] | 0.2 mg/L (≈ 0.427 µM) | 0.37 mg/L (≈ 0.79 µM) |  |  | 
29 | > 1 mg/L | 0.06 mg/L | C[S+]([O-])CC1(O)CC2OC1(C)n1c3ccccc3c3c4c(c5c6ccccc6n2c5c31)C(=O)NC4 (centres unmarked) [Compound 46] |  |  | 0.27 mg/L (≈ 0.556 µM) |  | 
30 | 0.38 mg/L (≈ 0.749 µM) |  | CC12OC(CC1(O)CN1CCNCC1)n1c3ccccc3c3c4c(c5c6ccccc6n2c5c31)CNC4=O (centres unmarked) [Compound 40] | > 1 mg/L | > 1 mg/L |  |  | 
